Reference: US20260274955A1, “ANTIBODIES FOR TARGETING CD28 AND USES THEREOF” (Janux Therapeutics, Inc., priority 2023, published 2026)
Where two headings read alike, the source gives them in different places. Values belong to the substance of their own block, whether it stands above or below them.

How the values were obtained:
[1] = molecular target: anti-CD28 scFv (disulfide) (SEQ ID NO: 67); test: Competition ELISA: peptide inhibition of anti-CD28 scFv (disulfide) binding to plate-bound CD28
Description: […] After a short pre-incubation period, the mixture of titrated peptide with fixed Ab-1 were added to the CD28 antigen coated plates. After a short incubation on the plates, bound Ab-1 was detected with a standard horse radish peroxidase conjugated secondary antibody.
(§1) The anti-CD28 Fab was fixed at a concentration of 1 nM and incubated with titrated 0-100 μM peptides.

[2] = molecular target: anti-CD28 Fab (SEQ ID NOs: 202, 203); test: Competition ELISA: peptide inhibition of anti-CD28 Fab binding to plate-bound CD28 (also alanine scanning peptides); settings: anti-CD28 Fab fixed at 1 nM
Description: Ab-1 fixed at 1 nanomolar (nM) concentration was pre-incubated with 0-100 micromolar (μM) titrated peptides. After a short pre-incubation period, the mixture of titrated peptide with fixed Ab-1 were added to the CD28 antigen coated plates. After a short incubation on the plates, bound Ab-1 was detected with a standard horse radish peroxidase conjugated secondary antibody.
as §1

[3] = molecular target: anti-CD28 scFv (SEQ ID NO: 35); test: Kinetic binding by bio-layer interferometry (Octet RED96): anti-CD28 scFv to peptides; design: species or system human; settings: for Kd: CD28 scFv titrated 100-12.5 nM, 200 nM peptide load
Description: (§2) Briefly, streptavidin biosensors were loaded with biotinylated peptides and baselined in buffer. […] After a short association period, sensors were transferred into buffer and the dissociation of bound anti-CD28 scFv was measured. The timing and steps of the experiment are shown in the accompanying table. Association and dissociation signals were recorded in real time and analyzed using a 1:1 binding model within the instrument software. Analysis using a 1:1 binding model enabled the calculation of the on and off rate constants as well as affinity, KD.
as §2, with “KD. FIGS. 48A-48F illustrate kinetic binding of anti-CD28 scFv binding to peptides as measured by Octet. FIGS. 48G-48U illustrate kinetic binding of peptides to the anti-CD28 scFv as measured by Octet.” for “KD.”

Ab-1 = test: Kinetic binding via BLI (Octet): Ab-1 binding to peptide-loaded sensors; design: species or system human; settings: Table 15, 100 nM Ab-1
Description: (§3) Kinetic binding of the peptides of Table 1 to Ab-1 was evaluated using biolayer interferometry (BLI). Briefly, biotinylated peptides were loaded onto a streptavidin coated Octet® SAX biosensor, quenched in biocytin, and baselined in buffer. Ab-1 was titrated in solution and associated onto the peptide loaded sensor. After a short association period, sensors were transferred into buffer and the dissociation of bound Ab-1 was measured. Association and dissociation signals were recorded in real time and analyzed using a 1:1 binding model within the instrument software. Analysis using a 1:1 binding model enabled the calculation of the on and off rate constants as well as affinity, KD.

[4] = test system: anti-CD28 Fab (SEQ ID NOs: 202, 203); test: Kinetic binding via BLI: peptides to anti-CD28 Fab; settings: for Off rate t½: Table 18, anti-CD28 Fab; for Kd / t½: binding to anti-CD28 Fab
Description: as §3, with “Briefly, biotinylated peptides were loaded onto a streptavidin coated Octet® SAX biosensor, quenched in biocytin, and baselined in buffer.” left out
Kinetic binding of the peptides to anti-CD28 Fab (SEQ ID NOs: 202, 203) was evaluated using BLI as described above.

[5] = read-out: anti-CD28 scFv (disulfide) Competition ELISA IC50, anti-CD28 scFv fixed at 0.3 nM, titrated 0-100 μM peptides, plate-bound CD28 antigen
[6] = titrated 0-100 μM peptides, plate-bound CD28 antigen, read-out: anti-CD28 Fab Competition ELISA IC50
[7] = Table 18, 0-100 μM peptide, read-out: Competition ELISA IC50
[8] = Table 17, 0-100 μM peptide, read-out: Competition ELISA IC50
[9] = BLI Octet RED96, biotinylated peptide loaded on streptavidin sensor, anti-CD28 scFv 100-12.5 nM, 1:1 binding model
[10] = Table 19, anti-CD28 scFv (disulfide) fixed at 0.3 nM, 0-100 μM peptide, read-out: Competition ELISA IC50

Sequence of anti-CD28 Fab (SEQ ID NOs: 202, 203) (as listed by the source): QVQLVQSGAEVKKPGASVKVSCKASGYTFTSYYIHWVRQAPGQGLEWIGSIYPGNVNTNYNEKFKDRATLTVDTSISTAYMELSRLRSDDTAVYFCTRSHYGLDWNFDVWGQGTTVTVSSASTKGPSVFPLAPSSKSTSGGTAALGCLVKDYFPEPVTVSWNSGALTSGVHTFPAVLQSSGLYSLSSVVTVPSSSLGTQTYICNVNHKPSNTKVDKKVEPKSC
Sequence of anti-CD28 Fab (SEQ ID NOs: 202, 203) (as listed by the source): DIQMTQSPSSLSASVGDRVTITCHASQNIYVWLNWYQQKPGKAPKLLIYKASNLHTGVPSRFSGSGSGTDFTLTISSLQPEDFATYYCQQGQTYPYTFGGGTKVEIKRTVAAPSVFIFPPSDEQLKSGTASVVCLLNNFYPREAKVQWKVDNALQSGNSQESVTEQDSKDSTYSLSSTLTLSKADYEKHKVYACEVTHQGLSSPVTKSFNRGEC
Sequence of anti-CD28 scFv (SEQ ID NO: 35) (as listed by the source): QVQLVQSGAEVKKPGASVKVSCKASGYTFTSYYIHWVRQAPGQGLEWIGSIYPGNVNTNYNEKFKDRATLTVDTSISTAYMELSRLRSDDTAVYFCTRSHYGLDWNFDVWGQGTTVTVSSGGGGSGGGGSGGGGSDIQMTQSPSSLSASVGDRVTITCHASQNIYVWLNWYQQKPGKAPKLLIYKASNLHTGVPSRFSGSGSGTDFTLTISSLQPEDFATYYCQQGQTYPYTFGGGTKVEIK
Sequence of anti-CD28 scFv (disulfide) (SEQ ID NO: 67) (as listed by the source): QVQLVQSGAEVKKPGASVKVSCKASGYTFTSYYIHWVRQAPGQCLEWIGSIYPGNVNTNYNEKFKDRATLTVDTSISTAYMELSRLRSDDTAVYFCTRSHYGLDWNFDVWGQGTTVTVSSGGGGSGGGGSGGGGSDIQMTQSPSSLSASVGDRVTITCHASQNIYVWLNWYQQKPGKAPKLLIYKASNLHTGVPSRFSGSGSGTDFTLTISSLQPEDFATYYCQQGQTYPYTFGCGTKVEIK

Substance: ACAGHAWQYINKCL [Peptide-59, alanine scanning peptide of Peptide-39]
IC50 [1, 5]: > 100 µM
IC50 [2, 6]: > 100 µM

Substance: GYCHYWGDMVMWCG [Peptide-118]
Kd ([3]; Table 28, 1:1 model): 0.017 µM
kdis ([3]; Table 28, CD28 scFv, 1:1 model): 0.00167 s⁻¹
kon ([3]; Table 28, CD28 scFv, 1:1 model): 98700 M⁻¹ s⁻¹

IC50 [2, 7]: > 100 µM
Substance: HCSGHHWLQVWKCF [Peptide-82, optimization library of Peptide-39]

IC50 [2, 8]: > 100 µM
Substance: LCAAGFTYPWPLCL [Peptide-107, optimization library of Peptide-44]

IC50 [2, 8]: > 100 µM
Substance: LCKPGVPYKWPTCL [Peptide-108, optimization library of Peptide-44]

Substance: MDWCPIDLWNECFF [Peptide-137]
kdis [3, 9]: 0.00369 s⁻¹
kon [3, 9]: 51400 M⁻¹ s⁻¹

Substance: MDWCPIHLWHVCFN [Peptide-138]
kdis [3, 9]: 0.00295 s⁻¹
kon [3, 9]: 59100 M⁻¹ s⁻¹

Substance: MDWCPIYLWSECFN [Peptide-139]
kdis [3, 9]: 0.00153 s⁻¹
kon [3, 9]: 29000 M⁻¹ s⁻¹

Substance: MDWCPLHMWHECFS [Peptide-141]
kdis [3, 9]: 0.00497 s⁻¹
kon [3, 9]: 39000 M⁻¹ s⁻¹

Substance: MDWCPLYLWNECFN [Peptide-142]
kdis [3, 9]: 0.00252 s⁻¹
kon [3, 9]: 36700 M⁻¹ s⁻¹

Substance: MDWCPRDLWDLCFA [Peptide-143]
kdis [3, 9]: 0.00351 s⁻¹
kon [3, 9]: 35900 M⁻¹ s⁻¹

Substance: MDWCPRDLWHECFA [Peptide-144]
kdis [3, 9]: 0.00277 s⁻¹
kon [3, 9]: 30000 M⁻¹ s⁻¹

Substance: MDWCPRDLWHLCFS [Peptide-145]
kdis [3, 9]: 0.00265 s⁻¹
kon [3, 9]: 51100 M⁻¹ s⁻¹

Substance: MDWCPRDLWSECFF [Peptide-146]
kdis [3, 9]: 0.0031 s⁻¹
kon [3, 9]: 38800 M⁻¹ s⁻¹

Substance: MDWCPRDLWVHCFA [Peptide-1]
kdis [3, 9]: 0.00154 s⁻¹
kon [3, 9]: 36400 M⁻¹ s⁻¹

Substance: MDWCPRDMWDECFA [Peptide-147]
kdis [3, 9]: 0.00433 s⁻¹
kon [3, 9]: 28400 M⁻¹ s⁻¹

Substance: MDWCPRDMWSECFA [Peptide-148]
kdis [3, 9]: 0.0032 s⁻¹
kon [3, 9]: 16700 M⁻¹ s⁻¹

Substance: MDWCPRDMWSVCFS [Peptide-149]
kdis [3, 9]: 0.00812 s⁻¹
kon [3, 9]: 21700 M⁻¹ s⁻¹

Substance: MDWCPRERWVDCFF [Peptide-116]
Kd ([3]; Table 28, 1:1 model): 0.377 µM
kdis ([3]; Table 28, CD28 scFv, 1:1 model): 0.0123 s⁻¹
kon ([3]; Table 28, CD28 scFv, 1:1 model): 32500 M⁻¹ s⁻¹

Substance: MDWCPRERWVDCFF [Peptide-156]
kdis [3, 9]: 0.0115 s⁻¹
kon [3, 9]: 41500 M⁻¹ s⁻¹

Substance: MDWCPRFMWDECFN [Peptide-150]
kdis [3, 9]: 0.00364 s⁻¹
kon [3, 9]: 27100 M⁻¹ s⁻¹

Substance: MDWCPRHMWNYCFA [Peptide-151]
kdis [3, 9]: 0.00218 s⁻¹
kon [3, 9]: 61900 M⁻¹ s⁻¹

Substance: MDWCPRSLWHECFA [Peptide-152]
kdis [3, 9]: 0.00201 s⁻¹
kon [3, 9]: 38900 M⁻¹ s⁻¹

Substance: MDWCPRYLWHVCFA [Peptide-153]
kdis [3, 9]: 0.00187 s⁻¹
kon [3, 9]: 88900 M⁻¹ s⁻¹

Substance: MDWCPVHLWSVCFA [Peptide-155]
kdis [3, 9]: 0.00443 s⁻¹
kon [3, 9]: 92300 M⁻¹ s⁻¹

Substance: MHWCPVDLWYLCYN [Peptide-154]
kdis [3, 9]: 0.00186 s⁻¹
kon [3, 9]: 88200 M⁻¹ s⁻¹

Substance: MNWCPKDIWYLCFN [Peptide-140]
kdis [3, 9]: 0.00684 s⁻¹
kon [3, 9]: 77000 M⁻¹ s⁻¹

Octet signal (20 nM peptide) (Ab-1): 0.4179
Substance: Met(O)2-DWCPRDLWVHCFA [Peptide-21]

Octet signal (20 nM peptide) (Ab-1): 0.1733
Substance: Met(O)-DWCPRDLWVHCFA [Peptide-20]

Substance: SCAAAASYAWPYCL [Peptide-52, alanine scanning peptide of Peptide-44]
IC50 [1, 5]: > 100 µM
IC50 [2, 6]: > 100 µM

Substance: SCAAGASAAWPYCL [Peptide-54, alanine scanning peptide of Peptide-44]
IC50 [1, 5]: > 100 µM
IC50 [2, 6]: > 100 µM

Substance: SCAAGASYAAPYCL [Peptide-55, alanine scanning peptide of Peptide-44]
IC50 [1, 5]: > 100 µM
IC50 [2, 6]: > 100 µM

Substance: SCAAGASYAWAYCL [Peptide-56, alanine scanning peptide of Peptide-44]
IC50 [1, 5]: > 100 µM
IC50 [2, 6]: > 100 µM

Substance: SCAAGASYAWPYCA [Peptide-58, alanine scanning peptide of Peptide-44]
IC50 [1, 5]: > 100 µM

Substance: SCAAGASYAWPYCL [Peptide-44]
IC50 [1, 10]: > 100 µM

Substance: WCWDYKLWVPMTCP [Peptide-37]
IC50 [1, 10]: > 100 µM
IC50 ([2]; Table 16, 0-100 μM peptide, read-out: Competition ELISA IC50): > 100 µM

Substance: YCAAHAWQYINKCL [Peptide-60, alanine scanning peptide of Peptide-39]
IC50 [1, 5]: > 100 µM
IC50 [2, 6]: > 100 µM

Substance: YCAGAAWQYINKCL [Peptide-61, alanine scanning peptide of Peptide-39]
IC50 [1, 5]: > 100 µM
IC50 [2, 6]: > 100 µM

Substance: YCAGHAWQAINKCL [Peptide-64, alanine scanning peptide of Peptide-39]
IC50 [1, 5]: > 100 µM
IC50 [2, 6]: > 100 µM

Substance: YCAGHAWQYANKCL [Peptide-65, alanine scanning peptide of Peptide-39]
IC50 [1, 5]: > 100 µM

Substance: YCAGHAWQYINACL [Peptide-67, alanine scanning peptide of Peptide-39]
IC50 [1, 5]: > 100 µM
IC50 [2, 6]: > 100 µM

Substance: YCAGHAWQYINKCL [Peptide-39]
IC50 [1, 10]: > 100 µM
Off rate t½ [4]: 42 s
Kd [4]: 2.02 µM
t½ [4]: 36 s

Substance: YCAGHSPINIGKCL [Peptide-36]
IC50 [1, 10]: > 100 µM

Off rate t½ [4]: 24 s
Kd [4]: 0.831 µM
t½ [4]: 24 s
Substance: YCEGHAPEYIAKCL [Peptide-73, optimization library of Peptide-39]

Off rate t½ [4]: 30 s
Kd [4]: 0.926 µM
t½ [4]: 30 s
Substance: YCEGHLPEYIEKCL [Peptide-72, optimization library of Peptide-39]

Off rate t½ [4]: 54 s
t½ [4]: 60 s
Substance: YCEGHLPEYIQKCL [Peptide-86, optimization library of Peptide-39]

Off rate t½ [4]: 54 s
Substance: YCEGHLPEYIWKCL [Peptide-87, optimization library of Peptide-39]

Off rate t½ [4]: 60 s
Kd [4]: 0.0447 µM
t½ [4]: 60 s
Substance: YCEGHLPEYLAKCL [Peptide-79, optimization library of Peptide-39]

Off rate t½ [4]: 36 s
t½ [4]: 36 s
Substance: YCEGHLPEYREKCL [Peptide-78, optimization library of Peptide-39]

Off rate t½ [4]: 48 s
Kd [4]: 0.11 µM
t½ [4]: 48 s
Substance: YCEGHLPEYRNKCL [Peptide-84, optimization library of Peptide-39]

IC50 [2, 7]: > 100 µM
Substance: YCWSHSPPFIKKCY [Peptide-83, optimization library of Peptide-39]
